Measurements reported in patent publication US4638070A, “Heterocyclic amino-alcohol derivatives” (Continental Pharma, priority 1980, dated 1987).

Columns and labels:
femoral artery = test: Vasodilator activity, femoral artery (technique of perfused paw); type: in vivo; set-up: key: O: no action; +: slight activity; ++: effect equal to half the effect of papaverine; +++: effect equal to that of papaverine; ++++: effect higher than that of papaverine; conditions: intra-arterial, 30 mg/kg, anaesthetized dog, vs papaverine at same dose
Experimental: (3) The vasodilator activity was measured at the level of femoral artery on anaesthetized dog (technique of perfused paw). The tested substances were given intra-arterially at the rate of 30 mg/kg. Results are expressed with respect to papaverine tested at the same dose.
++: effect equal to half the effect of papaverine.
+++: effect equal to that of papaverine.
++++: effect higher than that of papaverine.

[1] = test system: unanaesthetized, hypertension-suffering rat; test: Antihypertensive activity (systolic arterial pressure), oral; type: in vivo; conditions: 60 mg/kg, hypertensive rat, 3 hours
Experimental: (2) The antihypertensive activity was measured on unanaesthetized, hypertension-suffering rat. The tested substances were orally given at a rate of 60 mg/kg. The systolic arterial pressure was measured every 30 minutes for 2 hours before and for 3 hours after the tested product was given. Results are expressed as follows: […]
O: no reduction of arterial pressure.
+: reduction lower than 10 mm Hg.
++: reduction of 10 to 20 mm Hg.
+++: reduction higher than 20 mm Hg.

[2] = Acute toxicity, oral, LD50 (Litchfield and Wilcoxon); conditions: mouse, in vivo, fasted male mice, confidence limits p=95% in brackets
Experimental: (1) The acute toxicity was determined on fasted male mice. The tested substances were orally administered and LD50 values (lethal dose for 50% of animals) were calculated according to the method of Litchfield and Wilcoxon (J. Pharmacol. exp. Ther. 96, 94-113, 1949). These LD50 values are given in mg/kg and also, when possible, with their confidence limits for p=95%.

[3] = test system: guinea-pig ileum (histamine contractions); test: Antispasmodic activity in vitro, contractions caused by histamine; conditions: added 15 minutes before spasm-producing agent
Experimental: (§1) (4) The antispasmodic activity was measured in vitro, on guinea-pig ileum, the contractions of which were caused by histammne (Hist.), acetylcholine (Achol) or barium chloride (BaCl2). The tested products were added to perfusion bath 15 minutes before the spasm-producing agents.
(§2) The dose is given in micograms (μg) per ml of bath causing complete spasm inhibition.

[4] = test system: guinea-pig ileum (acetylcholine contractions); test: Antispasmodic activity in vitro, contractions caused by acetylcholine; conditions: added 15 minutes before spasm-producing agent
Experimental: as §1, §2

Row | SMILES | VASODILATOR ACTIVITY (femoral artery) | ANTIHYPERTENSIVE ACTIVITY [1] | LD50 [2] | ANTISPASMODIC ACTIVITY HIST. (dose causing complete spasm inhibition) [3] | ANTISPASMODIC ACTIVITY ACHOL (dose causing complete spasm inhibition) [4]
1 | CC(NCCCSc1ccccc1)C(O)c1ccc2c(c1)CCCS2 (stereo not shown) [No 37] | +++ | +++ (reduction higher than 20 mm Hg) | > 4000 mg/kg | 1.7 μg per ml | 1.7 μg per ml
2 | CC(NCCCC(=O)c1ccc(F)cc1)C(O)c1ccc2c(c1)CCCS2 (stereo not shown) [No 102] | ++ | +++ (reduction higher than 20 mm Hg) | > 4000 mg/kg | 0.8 μg per ml | 0.3 μg per ml
3 | CC(NCCOc1ccccc1)C(O)c1ccc2c(c1)CCC2 (stereo not shown) [No 168] | ++++ | +++ (reduction higher than 20 mm Hg) | > 2000 mg/kg | 3.3 μg per ml | 3.3 μg per ml
4 | CC1Cc2cc(C(O)C(C)NCCCCc3ccc(Cl)cc3)ccc2O1 (stereo not shown) [No 65] | +++ | +++ (reduction higher than 20 mm Hg) | 160 mg/kg | 0.8 μg per ml | 1.7 μg per ml
5 | CCC(=O)c1ccc(OCCNC(C)C(O)c2ccc3c(c2)CCS3)cc1 (stereo not shown) [No 108] | +++ | ++ (reduction of 10 to 20 mm Hg) | > 4000 mg/kg | 0.8 μg per ml | 3.3 μg per ml
6 | CC(NCCCCc1ccccc1)C(O)c1ccc2c(c1)SCCS2 (stereo not shown) [No 100] | ++++ | +++ (reduction higher than 20 mm Hg) | > 2000 mg/kg | 8.3 μg per ml | 1.7 μg per ml
7 | CC(NCCCSc1ccccc1)C(O)c1ccc2c(c1)CCCCS2 (stereo not shown) [No 39] | +++ | ++ (reduction of 10 to 20 mm Hg) | > 4000 mg/kg | 1.7 μg per ml | 0.8 μg per ml
8 | CC(NCCOc1ccccc1)C(O)c1ccc2c(c1)CCCCS2 (stereo not shown) [No 36] | +++ | +++ (reduction higher than 20 mm Hg) | > 4000 mg/kg | 3.3 μg per ml | 1.7 μg per ml
9 | CC(NCCOc1ccc(Cl)cc1)C(O)c1ccc2c(c1)CCCS2 (stereo not shown) [No 40] | +++ | +++ (reduction higher than 20 mm Hg) | > 4000 mg/kg | 1.7 μg per ml | 1.7 μg per ml
10 | CC1Cc2cc(C(O)C(C)NCCCCc3ccccc3)ccc2O1 (stereo not shown) [No 70] | ++ | +++ (reduction higher than 20 mm Hg) | 285 mg/kg | 1.7 μg per ml | 1.7 μg per ml
11 | CCC(=O)OC(c1ccc2c(c1)CCS2)C(C)NCCCCc1ccccc1 (stereo not shown) [No 118] | ++ | +++ (reduction higher than 20 mm Hg) | 2020 mg/kg | 0.8 μg per ml | 1.7 μg per ml
